Source: patent US5439888A, “Antithrombotic agents” (Eli Lilly and Company, priority 1994, dated 1995)

Experiments:
Trypsin = assay: Serine protease selectivity assay (chromogenic substrate), Kass, trypsin; assay type: biochemical, bovine; settings: equilibrium association constant; substrate N-Benzoyl-Phe-Val-Arg-p-nitroanilide
Method: [The procedure below names another target; the source says it served here with some conditions changed.] (§1) The assay is carried out by mixing 50 μL buffer (0.03M Tris, 0.15M NaCl ,pH 7.4) with 25 μL of bovine thrombin or human thrombin solution (0.21 mg/mL of thrombostat bovine thrombin, Parke-Davis, or purified human thrombin, Enzyme Research Laboratories, South Bend, Ind., at about 8 NIH units/mL, in the same buffer) and 25 μL of test compound in a solvent (in 50% aqueous methanol, v:v). The 150 μL of an aqueous solution of the chromogenic substrate (at 0.25 mg/mL) are added and the rates of hydrolysis of the substrate are measured by monitoring the reactions at 405 nm for the release of p-nitroaniline. Standard curves are constructed by plotting free thrombin concentration against hydrolysis rate. The hydrolysis rates observed with test compounds are then converted to "free thrombin" values in the respective assays by use of the standard curves. The bound thrombin (bound to test compound) is calculated by subtracting the amount of free thrombin observed in each assay from the known initial amount of thrombin used in the assay. The amount of free inhibitor in each assay is calculated by subtracting the number of moles of bound thrombin from the number of moles of added inhibitor (test compound). […]
(§2) Kass is calculated for a range of concentrations of test compounds and the mean value is reported in units of liter per mole. […]

Bovine Thrombin = assay: Inhibition of thrombin amidase activity (chromogenic substrate), Kass; assay type: biochemical; settings: equilibrium association constant, mean over a range of concentrations; substrate N-benzoyl-Phe-Val-Arg-p-nitroanilide
Method: as §1
Kass is calculated for a range of concentrations of test compounds and the mean value is reported in units of liter per mole.

factor Xa = assay: Serine protease selectivity assay (chromogenic substrate), Kass, factor Xa; assay type: biochemical, human; settings: equilibrium association constant; substrate N-Benzoyl-Ile-Glu-Gly-Arg-p-nitroanilide
Method: [The procedure below names another target; the source says it served here with some conditions changed.] as §1, §2

Plasmin = assay: Serine protease selectivity assay (chromogenic substrate), Kass, plasmin; assay type: biochemical, human; settings: equilibrium association constant; substrate H-D-Val-Leu-Lys-p-nitroanilide
Method: [The procedure below names another target; the source says it served here with some conditions changed.] as §1, §2

t-PA = assay: Serine protease selectivity assay (chromogenic substrate), Kass, t-PA; assay type: biochemical; settings: equilibrium association constant; substrate H-D-Ile-Pro-Arg-p-nitroanilide
Method: [The procedure below names another target; the source says it served here with some conditions changed.] as §1, §2

Kd (Trypsin) [µM]	Kd (Bovine Thrombin) [µM]	Kd (factor Xa) [µM]	Kd (Plasmin) [µM]	SMILES	Kass t-PA (t-PA)
250	0.909	3330	2000	CN[C@H](Cc1ccccc1)C(=O)N1CCC[C@H]1C(=O)N[C@](C)(C=O)CCCNC(=N)N [Example 1, D-N-methylphenylalanyl-L-prolinyl-L-α-methylarginine aldehyde]	0 × 10^6 (L/mole)
71.4	4.55	1000	1250	C[C@@](C=O)(CCCNC(=N)N)NC(=O)[C@@H]1CCCN1C(=O)[C@@H]1NCCc2ccccc21 [Example 2, D-1-(1,2,3,4-tetrahydroisoquinolinylcarboxyl)-L-prolinyl-L -α-methylarginine aldehyde]	0 × 10^6 (L/mole)
